Experimental data published in patent publication US4886807A, “Novel pyrimidopyrimidine derivative, process for producing it and pharmaceutical composition” (Nippon Zoki Pharmaceutical Co., Ltd., priority 1988, dated 1989).

What was measured:
[1] = tested on: PCA (passive cutaneous anaphylaxis) reaction; assay: Anti-allergic effect: PCA (passive cutaneous anaphylaxis) reaction in rats; assay type: in vivo, rats (Wister-strain, male); details: oral, 1 hour before challenge; for Leak of Dye: control 10.7 ± 1.0; for inhibition in vivo at 20 mg/kg / inhibition in vivo at 50 mg/kg / inhibition in vivo at 100 mg/kg: Rattus norvegicus, inhibition of dye leakage
Experimental: PCA (passive cutaneous anaphylaxis) reaction in rats was taken as an index to an anti-allergic effect of the compound of the present invention.
In order to perform sensitization, anti-DNP-Asc (dinitrophenylated Ascaris extracts) serum diluted with saline was injected intradermally at 4 sites on the shaved back of groups of 10 Wister-strain male rats (6 weeks of age). 1 hour after oral administration of the test drug, the mixture of equivalent amounts of DNP-Asc (5 mg/ml) and 2% Evans blue were intravenously injected to generate PCA reaction. 30 minutes thereafter, rats were killed by decapitation and exsanguinated. The skin was opened in order to evaluate the leakage of blue dye. The obtained skin was dissolved in 2N potassium hydroxide, then 2N phosphoric acid and acetone were added thereto. The amount of dye was determined by measurement of absorbance at 620 nm after centrifugation.

[2] = Acute toxicity test; details: mouse, in vivo, mice, mortality for 7 days after administration, probit method
Experimental: The test compounds were administered to groups of 10 ddy-strain male mice (weighing about 20 g). LD50 values of the compounds of the invention were calculated by the probit method based on mortality for 7 days after drug administration.

| SMILES | Leak of Dye ([1]; 20 mg/kg) | Leak of Dye ([1]; 50 mg/kg) | inhibition in vivo at 20 mg/kg ([1]; 20 mg/kg) | inhibition in vivo at 50 mg/kg ([1]; 50 mg/kg) | LD50 at 168 h ([2]; ip) | LD50 at 168 h ([2]; po) | Leak of Dye ([1]; 100 mg/kg) | inhibition in vivo at 100 mg/kg ([1]; 100 mg/kg) |
| --- | --- | --- | --- | --- | --- | --- | --- | --- |
| CNc1ncc2c(=O)n(C)c(=O)n(C)c2n1 [compound 8, 7-methylamino-1,3-dimethylpyrimido[4,5-d]pyrimidine-2,4-dione] | 7.6 ± 1.6 μg/site | 2.8 ± 0.7 μg/site | 29% | 73.8% |  |  |  |  |
| Cn1c(=O)c2cnc(N)nc2n(C)c1=O [compound 6, 7-amino-1,3-dimethylpyrimido[4,5-d]pyrimidine-2,4-dione] | 5.0 ± 0.9 μg/site | 2.3 ± 0.7 μg/site | 53.3% | 78.5% | 140 mg/kg | 940 mg/kg | 0.7 ± 0.2 μg/site | 93.5% |
| Cn1c(=O)c2cnc(C(F)(F)F)nc2n(C)c1=O [compound 4, 7-trifluoromethyl-1,3-dimethylpyrimido[4,5-d]pyrimidine-2,4-dione] |  | 6.6 ± 1.1 μg/site |  | 38.3% |  |  |  |  |
| Cc1ncc2c(=O)n(C)c(=O)n(C)c2n1 [compound 3, 1,3,7-trimethylpyrimido[4,5-d]pyrimidine-2,4-dione] |  | 4.2 ± 0.5 μg/site |  | 60.7% |  | 690 mg/kg |  |  |
| CNc1ncnc2c1c(=O)n(C)c(=O)n2C [compound 16, 5-methylamino-1,3-dimethylpyrimido[4,5-d]pyrimidine-2,4-dione] |  |  |  |  |  |  | 1.7 ± 0.6 μg/site | 84.1% |
| Cc1nc(N)c2c(=O)n(C)c(=O)n(C)c2n1 [compound 12, 5-amino-1,3,7-trimethylpyrimido[4,5-d]pyrimidine-2,4-dione] |  |  |  |  |  | 707 mg/kg | 1.0 ± 0.3 μg/site | 90.7% |
| Cn1c(=O)c2cnc(-c3ccccc3)nc2n(C)c1=O [compound 2, 7-phenyl-1,3-dimethylpyrimido[4,5-d]pyrimidine-2,4-dione] |  | 8.2 ± 0.9 μg/site |  | 23.4% |  |  |  |  |
| Cn1c(=O)c2[nH]cnc2n(C)c1=O [Theophylline, reference compound] | 3.5 ± 1.3 μg/site |  | 67.3% |  |  |  |  |  |
| Cn1c(=O)c2c(N)ncnc2n(C)c1=O [compound 9, 5-amino-1,3-dimethylpyrimido[4,5-d]pyrimidine-2,4-dione] | 5.9 ± 1.2 μg/site |  | 44.9% |  |  |  | 0.6 ± 0.1 μg/site | 94.4% |
| CC(C)Cn1c(=O)n(C)c(=O)c2c(N)ncnc21 [compound 11, 5-amino-1-iso-butyl-3-methylpyrimido[4,5-d]pyrimidine-2,4-dione] |  |  |  |  |  |  | 2.9 ± 0.8 μg/site | 72.9% |
| Cn1c(=O)c2cnc(N)nc2n(-c2ccccc2)c1=O [compound 7, 7-amino-1-phenyl-3-methylpyrimido[4,5-d]pyrimidine-2,4-dione] |  |  |  |  |  |  | 5.4 ± 0.7 μg/site | 49.5% |
| CCn1c(=O)c2cnc(N)nc2n(CC)c1=O [compound 17, 7-amino-1,3-diethyl-pyrimido[4,5-d]pyrimidine-2,4-dione] |  |  |  |  |  |  | 2.4 ± 0.7 μg/site | 77.6% |
| CC(C)Cn1c(=O)n(C)c(=O)c2cnc(N)nc21 [compound 18, 7-amino-1-iso-butyl 3-methylpyrimido[4,5-d]pyrimidine-2,4-dione] |  |  |  |  |  |  | 4.0 ± 0.6 μg/site | 62.6% |
| CCn1c(=O)c2c(N)ncnc2n(CC)c1=O [compound 10, 5-amino-1,3-diethylpyrimido[4,5-d]pyrimidine-2,4-dione] |  |  |  |  |  | 748 mg/kg | 1.6 ± 0.4 μg/site | 85% |
| Cn1c(=O)c2cncnc2n(C)c1=O [compound 5, 1,3-dimethylpyrimido[4,5-d]pyrimidine-2,4-dione] |  | 4.1 ± 0.8 μg/site |  | 61.7% |  |  |  |  |
| Cn1c(=O)c2c(N)nc(N)nc2n(C)c1=O [compound 14, 5,7-diamino-1,3-dimethylpyrimido[4,5-d]pyrimidine-2,4-dione] |  |  |  |  |  |  | 1.9 ± 0.5 μg/site | 82.2% |
